Laboratory results reported in patent publication US20190328670A1, “Microparticles for Oral Delivery” (Intervet Inc., priority 2004, published 2019).

Assay: Oral bioavailability in rats compared with conventional formulations
Assay type: in vivo
Method: Glyceryl tricaprylate and tricaprate mixture solutions containing these drugs are admixed in complex slurry according to Example 1 and recovered as free-flowing powders as in Example 2. […] Oral bioavailability is tested in rats and compared with those from other conventional formulations.
A soy oil solution containing 100 parts per million of triclosan is admixed in a complex slurry containing 100 parts per million of chlorhexidine according to Example 1. Microbeads are then produced and recovered as free-flowing powders as in Example 2. […] Oral bioavailability is tested in rats and compared with those from other conventional formulations.

## [H]/N=C(\N/C(=N/[H])NCCCCCCNC(=N)NC(=N)Nc1ccc(Cl)cc1)Nc1ccc(Cl)cc1 [chlorhexidine]
rat, in vivo, po
  Gastrointestinal absorption: more efficient

## Oc1cc(Cl)ccc1Oc1ccc(Cl)cc1Cl [triclosan]
rats, oral, from the microbeads/microcapsules versus powders, granules, or oil solution
  Gastrointestinal absorption: more efficient
